Laboratory results reported in patent publication US12152016B2, “Aryl hydrocarbon receptor modulators and uses thereof” (Beth Israel Deaconess Medical Center, Inc., priority 2018, dated 2024).
“Also recorded” adds a separate entry of the source.

Experiments:
Format in all cases: cell-based
[1] = target: T1, aryl hydrocarbon receptor (AHR) (Mus musculus, UniProt P30561); assay: XRE-driven luciferase reporter assay, mouse Hepa1c1c7
T1 construct: Transfection was performed with 150 ng XRE-luciferase plasmid (Promega); endogenous in cells; host or cells: Hepa-1c1c7 (mouse hepatoma cell line)
Experimental: Human HepG2 or mouse Hepa-1c1c7 cells were seeded in 96 well opaque plates at 75,000 cells per well in full medium (DMEM+10% FBS) for 24 hours. Transfection was performed with 150 ng XRE-luciferase plasmid (Promega) with 4:1 Fugene to DNA ratio for 18 hours in Opti-MEM. Transfected cells were treated with AhR agonist (10^−5-10^−12) for 4.5 h in full medium. Cells were lysed and luciferase was activated using the Luciferase Assay System (Promega). Luminescence signals were measured with a FluroStar Omega microplate reader. Luminescence signals of compound treated groups were normalized to vehicle (DMSO) treated control and plotted as concentration dependent fold changes.

[2] = system: AHR-dependent transcription of the CYP1A1 gene; assay: CYP1A1 induction in mouse macrophages
Experimental: Mouse macrophages were also used to test AHR-dependent transcription of the CYP1A1 gene in vivo. Finally, the activity of exemplary compounds of Formula (I) described herein was tested in the human […] cell line U937. The U937 cell line is derived from a patient with diffuse histiocytic lymphoma. Tables 2-4 summarize structure-activity relationship data collected for exemplary, non-limiting compounds of Formula (I) described herein.

AhR = target: T2, AhR (Mus musculus, UniProt P30561); assay: AhR nuclear translocation assay, mouse Hepa-1c1c7; conditions: mouse Hepa-1c1c7, 10 μM, 90 minutes
T2 construct: endogenous in cells; host or cells: Hepa-1c1c7 (mouse hepatoma cell line)
Experimental: Mouse Hepa-1c1c7 or human HepG2 cells were seeded in 8 well chamber slides followed by 24 hours incubation in tryptophan deficient media (HBSS with Ca^2+ and Mg^2+, 10% heat inactivated FBS, 1× non-essential amino acids, 1× sodium pyruvate, 4.5 g/L glucose). Cells were treated with vehicle control (DMSO) or 10 μM ITE, compound 108, or compound 109 for 90 minutes in tryptophan deficient media. Following treatment, cells were fixed in 4% formaldehyde and processed according to standard immunofluorescence staining protocol. Primary anti-AhR antibody was applied at 1:100 dilution (Enzo, BML-SA210) and Alexa488 conjugated secondary antibody was applied at 1:500 dilution (Cell Signaling, 4412S). Actin was stained using Alexa 568 conjugated Phalloidin (Fisher). Samples were mounted in anti-fade mounting medium supplemented with DAPI for nuclear staining and imaged with confocal microscopy (Leica SP5×MP, 63× oil lens).

cyp1a1 = cyp1a1 expression by q-PCR in mouse Hepa-1c1c7 cells; conditions: mouse Hepa-1c1c7, 10 nM-10 μM, 8 hours
Experimental: RNA was extracted using TRIzol (Invitrogen) following manufacturer's instructions and 0.1 μg of RNA was converted to cDNA using a high capacity cDNA reverse transcription kit (Invitrogen). qPCR was performed on the Applied Biosystems 7900 using TaqMan® Universal PCR Master Mix (Life Technologies) with TaqMan® (Life Technologies) primers against cyp1a1 (Mm00487218_m1), AhR (Mm00478932_m1), IL-22 (Mm01226722_g1), Foxp3 (Mm00475162_m1), IL-10 (Mm01288386_m1), TNF-a (Mm00443258_m1), IFN-r (Mm01168134_m1). The fold increase from experimental groups to control was calculated using the delta-delta CT method with 18S (Mm00446186_m1) as an internal reference gene. In vitro and in vivo activation of the AhR singling pathway was confirmed by q-PCR characterization of cyp1a1. For in vitro induction, mouse Hepa-1c1c7 were cultured to confluence in 24 well plates in full DMEM followed by 24 hours incubation in tryptophan deficient media. Cells were treated with vehicle control (DMSO), ITE, compound 108, or compound 109 (10 nM-10 μM) for 8 hours in tryptophan deficient media. At the end of treatment, cells were lysed in TRIzol for RNA isolation. To monitor in vivo induction, (0.1-1000 μg) compound 109 was given per mouse via oral gavage in 100 μl of vehicle (1% HPMC, 1% polysorbate 80). After 12 hours, liver, colon, spleen and leukocytes from blood were collected and lysed in TRIzol (Invitrogen) for q-PCR analysis.

T1 sequence (P30561 10-805 limits assumed): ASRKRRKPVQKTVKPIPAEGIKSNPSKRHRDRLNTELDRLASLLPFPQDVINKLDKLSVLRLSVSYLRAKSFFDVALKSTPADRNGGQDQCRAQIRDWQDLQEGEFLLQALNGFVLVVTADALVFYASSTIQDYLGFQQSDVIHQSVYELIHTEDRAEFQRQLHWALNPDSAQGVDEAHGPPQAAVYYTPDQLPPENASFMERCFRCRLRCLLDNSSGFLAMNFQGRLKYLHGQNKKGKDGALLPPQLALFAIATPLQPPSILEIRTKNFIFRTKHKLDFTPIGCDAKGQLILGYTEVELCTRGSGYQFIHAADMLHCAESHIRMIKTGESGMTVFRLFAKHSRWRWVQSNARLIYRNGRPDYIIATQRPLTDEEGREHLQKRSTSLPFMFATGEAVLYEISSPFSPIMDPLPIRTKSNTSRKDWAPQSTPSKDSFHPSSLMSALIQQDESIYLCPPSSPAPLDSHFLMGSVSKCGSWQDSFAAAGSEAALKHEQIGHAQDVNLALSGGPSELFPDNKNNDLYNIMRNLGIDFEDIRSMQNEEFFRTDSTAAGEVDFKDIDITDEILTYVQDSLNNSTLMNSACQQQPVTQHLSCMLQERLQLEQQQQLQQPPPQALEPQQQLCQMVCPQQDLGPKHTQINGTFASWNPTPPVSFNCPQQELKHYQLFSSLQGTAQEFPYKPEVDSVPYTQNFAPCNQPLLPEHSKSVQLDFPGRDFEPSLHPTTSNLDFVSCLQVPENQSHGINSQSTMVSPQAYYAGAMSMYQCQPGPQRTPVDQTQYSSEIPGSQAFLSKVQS
T1 sequence (P53762 whole entry partner): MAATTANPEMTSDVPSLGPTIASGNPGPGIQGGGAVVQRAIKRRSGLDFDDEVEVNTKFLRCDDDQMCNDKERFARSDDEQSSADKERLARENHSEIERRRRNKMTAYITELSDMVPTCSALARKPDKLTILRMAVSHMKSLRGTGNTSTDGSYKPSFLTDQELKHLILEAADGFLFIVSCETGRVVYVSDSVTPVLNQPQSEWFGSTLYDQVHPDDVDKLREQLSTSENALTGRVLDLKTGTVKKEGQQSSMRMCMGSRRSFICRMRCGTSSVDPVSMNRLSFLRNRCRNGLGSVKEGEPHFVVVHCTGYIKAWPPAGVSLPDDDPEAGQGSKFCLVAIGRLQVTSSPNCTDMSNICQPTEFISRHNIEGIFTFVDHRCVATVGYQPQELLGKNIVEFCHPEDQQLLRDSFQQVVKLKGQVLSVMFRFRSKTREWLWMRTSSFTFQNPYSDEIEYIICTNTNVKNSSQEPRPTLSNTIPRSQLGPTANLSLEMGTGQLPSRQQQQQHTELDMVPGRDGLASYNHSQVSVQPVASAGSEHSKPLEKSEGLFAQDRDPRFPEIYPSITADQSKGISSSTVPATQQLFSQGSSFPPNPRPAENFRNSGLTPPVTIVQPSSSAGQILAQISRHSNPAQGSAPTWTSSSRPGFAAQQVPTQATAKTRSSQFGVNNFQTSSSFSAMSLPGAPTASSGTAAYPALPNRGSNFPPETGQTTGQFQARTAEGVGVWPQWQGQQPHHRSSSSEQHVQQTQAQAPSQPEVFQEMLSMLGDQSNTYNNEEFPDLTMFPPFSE
T2 sequence (P30561 10-805 limits assumed): as the sequence (P30561 10-805 limits assumed) above
T2 sequence (P53762 whole entry partner): as the sequence (P53762 whole entry partner) above

## N#Cc1cccc(C(=O)c2c[nH]c3ccccc23)n1 [Compound 108, 6-(1H-indole-3-carbonyl)pyridine-2-carbonitrile]
[1]
  EC50: 94 nM
  XRE luciferase Emax (fold): 86 fold
[2]; 50 nM
  CYP1A1 induction (% of ITE ± SEM): 33 ± 3 % of ITE
[2]; 5 μM
  CYP1A1 induction (% of ITE ± SEM): 94 ± 24 % of ITE
AhR
  AhR nuclear translocation: localized in the nucleus; also recorded: rapid nuclear enrichment of AhR
cyp1a1
  cyp1a1 expression (qPCR): induced AhR-dependent cyp1a1 expression; also recorded: dose dependent induction of cyp1a1 expression
